Earlier results, collected in patent publication US6482832B1, “Heterocyclically substituted amides, their production and their use” (Abbott Laboratories, priority 1998, dated 2002).
Where two headings read alike, the source gives them in different places.

Tests used:
cells = settings: surmount the cell membrane only with difficulty
[1] = system: calpain-mediated cleavage of pp60src in platelets; settings: activated platelets; Oda et al., J. Biol. Chem. 1993

| Molecule | effect on cells (cells) | calpain inhibition (calpain; known calpain inhibitors) | cleavage of pp60src [1] | calpain inhibition (calpain; M. R. Angelastro et al., J. Med. Chem. 1990, 33, 11-13) |
| --- | --- | --- | --- | --- |
| CC(C)C[C@H](NC(=O)[C@H]1O[C@@H]1C(=O)O)C(=O)NCCCCN=C(N)N [E 64] | poor effect on cells | good calpain inhibitors | – | – |
| CCCC[C@@H](C=O)NC(=O)[C@H](CC(C)C)NC(=O)OCc1ccccc1 [calpeptin] | – | – | can prevent the cleavage of pp60src | – |
| CC(=O)N[C@@H](CC(C)C)C(=O)N[C@@H](CC(C)C)C(=O)N[C@H](C=O)CCCNC(=N)N [leupeptin] | poor effect on cells | good calpain inhibitors | – | – |
| Ph—CONH—CH(CH2Ph)—CO—COCOOCH3 | – | – | – | only a weak calpain inhibitor |
